Test results taken from US10233180B2, “Substituted nitrogen-containing heterocyclic derivatives, pharmaceutical compositions comprising the same and applications of antitumor thereof” (ZHEJIANG UNIVERSITY, priority 2014, dated 2019).

Tests used:
[1] = tested on: human colon cancer cell strain HCT-116; assay: MTT assay, inhibition of tumor cell growth in vitro, 72 h; assay type: cell-based; details: Homo sapiens, HCT-116, MTT, read-out: Antitumor proliferative activities of tumor cell (IC50, μM) HCT-116 (converted)
Procedure: (§1) First, inhibitory activity on tumor proliferation in vitro is determined and the structure activity relationship is preliminarily studied, in which different solid tumor cell strains are selected for determining the antitumor activities in vitro of the synthesized compounds.
(§2) Cell strains: Human ovarian cancer cell strain (OVCAR8), colon adenocarcinoma cell strain (HCT-116)
HCT-116: RPMI 1640+Fetal Bovine Serum
(§3) Preparing method of medicines: Dissolving the medicine in DMSO to make a 50 mM stock solution, and diluting it according to a certain ratio to obtain 5 different concentrations.
(§4) Two selected tumor cells OVCAR8 and HCT-116 are incubated at 37° C. in a 5% CO2 incubator, which are subcultured when cells grow up to a density of 70˜90% (adherent cells are subcultured after digesting by Duck's EDTA) for later experiments.
(§5) Compounds are dissolved and diluted by dimethyl sulfoxide (DMSO), and tumor cells OVCAR8 and HCT-116 are seeded in a 96-well plate at a density of 4000 cells/200 μl/well, 1 μl of the compounds are added to each well with the final concentration of 50 μM, 10 μM, 2 μM, 0.4 μM and 0.08 μM, which is incubated for 72 h at 37° C. in a 5% CO2 incubator with DMSO (1%) as blank control.
(§6) The calculating formula of cell inhibitory rate is: cell inhibitory rate %=(the OD value of the control group−the OD value of the medication group)/the OD value of the control group×100%, the half maximal inhibitory concentration (IC50) is obtained by Bliss method.

[2] = tested on: Human ovarian cancer cell strain OVCAR-8; assay: as above; assay type: cell-based; details: Homo sapiens, OVCAR-8, MTT, read-out: Antitumor proliferative activities of tumor cell (IC50, μM) OVCAR-8
Procedure: as §1, §2
Medium: OVCAR8: RPMI 1640+Fetal Bovine Serum
as §3, §4, §5, §6

Akt1 = biological target: T1, Akt1 (Homo sapiens, UniProt P31749); assay: AKT1/PKBα KinEASE FP Fluorescein Green Assay (fluorescence polarization kinase kit); assay type: biochemical; details: 1 h reaction, read-out: Inhibitory activities against Akt1 (IC50)
T1 construct: purchased 32-021
T1 sequence (P31749 whole entry): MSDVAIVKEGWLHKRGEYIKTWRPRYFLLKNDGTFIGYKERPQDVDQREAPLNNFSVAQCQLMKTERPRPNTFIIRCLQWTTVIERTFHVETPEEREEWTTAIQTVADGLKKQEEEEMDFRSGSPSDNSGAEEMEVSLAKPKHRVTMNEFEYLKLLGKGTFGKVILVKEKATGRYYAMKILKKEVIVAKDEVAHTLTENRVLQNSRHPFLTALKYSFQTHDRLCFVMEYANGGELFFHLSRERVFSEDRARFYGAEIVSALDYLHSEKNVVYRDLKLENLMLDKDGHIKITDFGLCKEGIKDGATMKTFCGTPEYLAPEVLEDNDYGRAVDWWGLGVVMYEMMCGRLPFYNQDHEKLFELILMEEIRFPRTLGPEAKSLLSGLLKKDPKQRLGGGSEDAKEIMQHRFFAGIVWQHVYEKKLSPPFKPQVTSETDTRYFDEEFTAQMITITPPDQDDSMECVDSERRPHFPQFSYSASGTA
Procedure: Second, method for determining the inhibitory activities of substituted nitrogen-containing heterocyclic derivatives in the present invention against Akt1 enzyme:
The inhibitory activities of compounds against AKT1/PKBα are determined by using AKT1/PKBα KinEASE™ FP Fluorescein Green Assay (Green fluorescence detection system of Kinase).
Principle adopted by the fluorescence polarization detection of protein kinase B is a competitive reaction: the phosphorylated tracers labeled with fluorescence will compete with unlabeled phosphorylated products produced by reacting with protein kinase B to combine anti-serine antibodies. […] However, in the reaction mixture containing phosphorylated products, fewer tracers will combine with antibodies (fluorescent tracers are replaced from the antibodies), and signals sent our occur depolarizing. Therefore, the change of polarization is directly related to the activity of protein kinase B in the reaction.
Each of 0.25 μl of compounds with a concentration of 50 μM and the positive control are added to a 384-well plate at room temperature, and each sample is provided with three parallel wells, and then 10 μl of STK Substrate 3 Working Solution, 5 μl of AKT1/PKBα Working Solution, 10 μl of ATP Working Solution are added to each sample respectively, the mixtures are slightly vibrated and shaked for a few minutes. Reaction is carried out just after the adding 10 μl of ATP Working Solution, from this time, reacting for 1 h. After 1 h, 5 μl of STK Stop Mix and 5 μl of STK Antibody Mix are added to each sample respectively to stop the reaction. The samples are maintained for 4 h at room temperature after adding is completed, the polarization values of samples are determined by fluorescence polarization of Microplate Reader (Detection of the signals is valid within 24 h), the inhibitory rate of compounds against the enzyme is calculated by polarization value, and thereby IC50 is calculated.
Experiment is set up four control groups at the same time, which are Buffer Control Wells, Tracer Control Wells, No Enzyme Wells and blank control of dimethyl sulfoxide, respectively. Thus obtained data are used to calculate the inhibitory rate (the preparation methods of above various solution required for determining the activities of compounds against enzyme refer to the specification of the kit of AKT1/PKBα KinEASE™ FP Fluorescein Green Assay Catalog #32-021).

IC50 [1] | IC50 [2] | IC50 (Akt1) | SMILES
11.8 µM | 3.38 µM | 0.062 µM | Cn1ncc(Br)c1-c1coc(C(=O)N[C@H]2CNCC[C@@H]2c2ccc(F)c(F)c2)c1 (racemic) [Compound 28, 4-(4-bromo-1-methyl-1H-pyrazol-5-yl)-N-(3,4-trans-4-(3,4-difluorophenyl)piperidin-3-yl)furan-2-formamide]
8.67 µM | 1.12 µM | 0.062 µM | Cn1ncc(Cl)c1-c1cc(C(=O)N[C@H]2CNCC[C@@H]2c2ccccc2)oc1Cl (racemic) [Compound 29, 5-chloro-4-(4-chloro-1-methyl-1H-pyrazol-5-yl)-N-(3,4-trans-4-phenylpiperidin-3-yl)furan-2-formamide]
21.6 µM | 1.01 µM | 0.092 µM | Cn1ncc(Cl)c1-c1cc(C(=O)N[C@H]2CNCC[C@@H]2c2ccc(C(F)(F)F)cc2)oc1Cl (racemic) [Compound 30, 5-chloro-4-(4-chloro-1-methyl-1H-pyrazol-5-yl)-N-(3,4-trans-4-(4-trifluoromethylphenyl)piperidin-3-yl)furan-2-formamide]
1.85 µM | 4.54 µM | 0.018 µM | Cn1ncc(Cl)c1-c1cc(C(=O)N[C@H]2CNCC[C@@H]2c2ccc(F)c(F)c2)oc1Cl (racemic) [Compound 31, 5-chloro-4-(4-chloro-1-methyl-1H-pyrazol-5-yl)-N-(3,4-trans-4-(3,4-difluorophenyl)piperidin-3-yl)furan-2-formamide]
18.1 µM | 1.47 µM | 0.123 µM | Cn1nccc1-c1csc(C(=O)N[C@H]2CNCC[C@@H]2c2ccc(Cl)cc2)c1 (racemic) [Compound 32, 4-(1-methyl-1H-pyrazol-5-yl)-N-(3,4-trans-4-(4-chlorphenyl)piperidin-3-yl) thiophene-2-formamide]
11.5 µM | 4.61 µM | 0.12 µM | Cn1ncc(Cl)c1-c1csc(C(=O)N[C@H]2CNCC[C@@H]2c2ccc(Cl)cc2)c1 (racemic) [Compound 35, 4-(4-chloro-1-methyl-1H-pyrazol-5-yl)-N-(3,4-trans-4-(4-chlorphenyl)piperidin-3-yl)thiophene-2-formamide]
3.28 µM | 3.38 µM | 0.105 µM | Cn1ncc(Cl)c1-c1csc(C(=O)N[C@H]2CNCC[C@@H]2c2ccc(F)c(F)c2)c1 (racemic) [Compound 36, 4-(4-chloro-1-methyl-1H-pyrazol-5-yl)-N-(3,4-trans-4-(3,4-difluorophenyl)piperidin-3-yl)thiophene-2-formamide]
2.24 µM | 5.36 µM | 0.052 µM | Cn1ncc(Br)c1-c1csc(C(=O)N[C@H]2CNCC[C@@H]2c2ccc(Cl)cc2)c1 (racemic) [Compound 37, 4-(4-bromo-1-methyl-1H-pyrazol-5-yl)-N-(3,4-trans-4-(4-chlorphenyl)piperidin-3-yl)thiophene-2-formamide]
1.94 µM | 4.69 µM | 0.409 µM | Cn1ncc(Br)c1-c1csc(C(=O)N[C@H]2CNCC[C@@H]2c2ccc(F)c(F)c2)c1 (racemic) [Compound 38, 4-(4-bromo-1-methyl-1H-pyrazol-5-yl)-N-(3,4-trans-4-(3,4-difluorophenyl)piperidin-3-yl)thiophene-2-formamide]
23.8 µM | 7.94 µM | 0.348 µM | Cc1cnn(C)c1-c1cnc(C(=O)N[C@H]2CNCC[C@@H]2c2ccc(F)c(F)c2)cc1F (racemic) [Compound 46, 4-fluoro-5-(1,4-dimethyl-1H-pyrazol-5-yl)-N-(3,4-trans-4-(3,4-difluorophenyl)piperidin-3-yl)pyridinyl-2-formamide]
3.11 µM | 5.57 µM | 0.216 µM | CCc1cnn(C)c1-c1cc(C(=O)N[C@H]2CNCC[C@@H]2c2ccc(Cl)cc2)nc(C)n1 (racemic) [Compound 47, 2-methyl-6-(1-methyl-4-ethyl-1H-pyrazol-5-yl)-N-(3,4-trans-4-(4-chlorophenyl)piperidin-3-yl)pyrimidine-4-formamide]
2.05 µM | 1.06 µM | 0.072 µM | Cc1nc(C(=O)N[C@H]2CNCC[C@@H]2c2ccc(F)c(F)c2)ncc1-c1c(Cl)cnn1C (racemic) [Compound 52, 4-methyl-5-(4-chloro-1-methyl-1H-pyrazol-5-yl)-N-(3,4-trans-4-(3,4-difluorophenyl)piperidin-3-yl)pyrimidine-2-formamide]
2.66 µM | 4.69 µM | 0.029 µM | CCc1cnn(C)c1-c1cccc(C(=O)N[C@H]2CNCC[C@@H]2c2ccc(Cl)cc2)c1Cl (racemic) [Compound 53, 2-chloro-3-(4-ethyl-1-methyl-1H-pyrazol-5-yl)-N-(3,4-trans-4-(4-chlorophenyl)piperidin-3-yl)phenyl formamide]
3.14 µM | 13.3 µM | 0.678 µM | CCCc1cc(C(=O)N[C@H]2CNCC[C@@H]2c2cc(OC)cc(OC)c2)ccc1-c1c(Br)cnn1C (racemic) [Compound 54, 3-n-propyl-4-(4-bromo-1-methyl-1H-pyrazol-5-yl)-N-(3,4-trans-4-(3,5-dimethoxyphenyl)piperidin-3-yl)phenyl formamide]
2.5 µM | 12.9 µM | 0.082 µM | Cc1cccc([C@H]2CCNC[C@@H]2NC(=O)c2cc(C)c(-c3c(Br)cnn3C)cc2C)c1 (racemic) [Compound 57, 2,5-dimethyl-4-(4-bromo-1-methyl-1H-pyrazol-5-yl)-N-(3,4-trans-4-(3-methylphenyl)piperidin-3-yl)phenyl formamide]
15.8 µM | 3.68 µM | 0.052 µM | Cc1nc(C(=O)N[C@H]2CNCC[C@@H]2c2ccncc2)ccc1-c1c(Br)cnn1C (racemic) [Compound 58, 6-methyl-5-(4-bromo-1-methyl-1H-pyrazol-5-yl)-N-(3,4-trans-4-(pyridinyl-4-yl)piperidin-3-yl)pyridinyl-2-formamide]
2.27 µM | 6.01 µM | 0.972 µM | Cc1cnn(C)c1-c1cnc(C(=O)N[C@H]2CNCC[C@@H]2c2ccc[nH]2)nc1C (racemic) [Compound 60, 4-methyl-5-(1,4-dimethyl-1-methyl-1H-pyrazol-5-yl)-N-(3,4-trans-4-(pyrrole-2-yl)piperidins-3-yl)pyrimidine-2-formamide]
3.22 µM | 3.48 µM | 0.345 µM | Cn1ncc(Cl)c1-c1coc(C(=O)N[C@H]2CNC[C@@H]2c2ccc(F)c(F)c2)c1 (racemic) [Compound 66]
20.4 µM | 10.6 µM | 0.272 µM | Cn1ncc(Br)c1-c1coc(C(=O)N[C@H]2CNC[C@@H]2c2ccc(C(F)(F)F)cc2)c1 (racemic) [Compound 67, 4-(4-bromo-1-methyl-1H-pyrazol-5-yl)-N-(3,4-trans-4-(4-trifluoromethylphenyl)pyrrolidin-3-yl)furan-2-formamide]
2.84 µM | 4.19 µM | 0.679 µM | Cn1ncc(Br)c1-c1coc(C(=O)N[C@H]2CNC[C@@H]2c2ccc(F)c(F)c2)c1 (racemic) [Compound 68, 4-(4-bromo-1-methyl-1H-pyrazol-5-yl)-N-(3,4-trans-4-(3,4-difluorophenyl)pyrrolidin-3-yl)furan-2-formamide]
